Assay results published in patent US9708314B2, “Heterocyclic amide compound” (NISSAN CHEMICAL INDUSTRIES, LTD., priority 2013, dated 2017).

Legend:
Assay type in all cases: in vivo
[1] = test system: directly sowed Oryza sativa; assay: Test Example 3: effect on crop by application to foliage (Wagner pot, water depth 0.1-0.5 cm); conditions: Nineteenth Table; application to foliage; application herbicide amount 320 g/ha
How it was run: (§1)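 Post-emergence foliar application at a stated g/ha rate to plants grown 14 days from seed in alluvial soil, greenhouse 25–30 °C. Visual score after 3 weeks: 0 (≤5% effect) through 5 (≥90%).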

[2] = test system: Cyperus difformis; assay: Test Example 3: herbicidal effect by application to foliage (Wagner pot, water depth 0.1-0.5 cm); conditions: Nineteenth Table; application to foliage; application herbicide amount 320 g/ha
How it was run: as §1

[3] = test system: Leptochloa chinensis; assay: as above; conditions: Nineteenth Table; application to foliage; application herbicide amount 320 g/ha
How it was run: as §1

[4] = test system: Echinochloa crus-galli var. crus-galli; assay: as above; conditions: Nineteenth Table; application to foliage; application herbicide amount 320 g/ha
How it was run: as §1

[5] = test system: Abutilon theophrasti; assay: Test Example 4: herbicidal effect by application to foliage (diluvial soil, plastic box); conditions: foliage application, 320 g/ha
How it was run: (§2)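 Greenhouse plants (25° C. to 30° C., 14 d, diluvial soil) receive a foliar spray of water-diluted emulsifiable formulation at defined g/ha. Grading after 3 weeks uses a six-step herbicidal-ratio scale, with 4 covering 70% to <90% and 1 covering 5% to <20%.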

[6] = test system: Setaria viridis; assay: as above; conditions: foliage application, 320 g/ha
How it was run: as §2

[7] = test system: Lolium multiflorum Lam.; assay: as above; conditions: foliage application, 320 g/ha
How it was run: as §2

[8] = test system: Stellaria media; assay: as above; conditions: foliage application, 320 g/ha
How it was run: as §2

[9] = test system: Avena fatua; assay: as above; conditions: foliage application, 320 g/ha
How it was run: as §2

[10] = test system: Amaranthus retroflexus; assay: as above; conditions: foliage application, 320 g/ha
How it was run: as §2

[11] = test system: Veronica persica; assay: as above; conditions: foliage application, 320 g/ha
How it was run: as §2

[12] = test system: Digitaria ciliaris; assay: as above; conditions: foliage application, 320 g/ha
How it was run: as §2

[13] = test system: Galium spurium; assay: as above; conditions: foliage application, 320 g/ha
How it was run: as §2

[14] = test system: Apera spica-venti.; assay: as above; conditions: foliage application, 320 g/ha
How it was run: as §2

[15] = test system: Chenopodium album; assay: as above; conditions: foliage application, 320 g/ha
How it was run: as §2

[16] = test system: Alopecurus myosuroides; assay: as above; conditions: foliage application, 320 g/ha
How it was run: as §2

[17] = test system: Echinochloa crus-galli var. crus-galli; assay: as above; conditions: foliage application, 320 g/ha
How it was run: as §2

Row | SMILES | b (effect on crop grade) [1] | E (herbicidal effect grade) [2] | D (herbicidal effect grade) [3] | H (herbicidal effect grade) [4] | M (Abutilon theophrasti) herbicidal effect grade [5] | G (Setaria viridis) herbicidal effect grade [6] | K (Lolium multiflorum Lam.) herbicidal effect grade [7] | P (Stellaria media) herbicidal effect grade [8] | I (Avena fatua) herbicidal effect grade [9] | N (Amaranthus retroflexus) herbicidal effect grade [10] | R (Veronica persica) herbicidal effect grade [11] | F (Digitaria ciliaris) herbicidal effect grade [12] | Q (Galium spurium) herbicidal effect grade [13] | L (Apera spica-venti.) herbicidal effect grade [14] | O (Chenopodium album) herbicidal effect grade [15] | J (Alopecurus myosuroides) herbicidal effect grade [16] | H (Echinochloa crus-galli var. crus-galli) herbicidal effect grade [17]
1 | Cn1nnnc1NC(=O)c1ccc(C(F)(F)F)n2c(-c3cccs3)nnc12 [2-061] | 5 (Herbicidal ratio of 90% or more (almost completely withered)) | 5 (Herbicidal ratio of 90% or more (almost completely withered)) | 5 (Herbicidal ratio of 90% or more (almost completely withered)) | 5 (Herbicidal ratio of 90% or more (almost completely withered)) | 4 (Herbicidal ratio of 70% or more and less than 90%) | 5 (Herbicidal ratio of 90% or more (almost completely withered)) | 4 (Herbicidal ratio of 70% or more and less than 90%) | 5 (Herbicidal ratio of 90% or more (almost completely withered)) | 4 (Herbicidal ratio of 70% or more and less than 90%) | 5 (Herbicidal ratio of 90% or more (almost completely withered)) | 5 (Herbicidal ratio of 90% or more (almost completely withered)) | 5 (Herbicidal ratio of 90% or more (almost completely withered)) | 3 (Herbicidal ratio of 40% or more and less than 70%) | 3 (Herbicidal ratio of 40% or more and less than 70%) | 5 (Herbicidal ratio of 90% or more (almost completely withered)) | 3 (Herbicidal ratio of 40% or more and less than 70%) | 5 (Herbicidal ratio of 90% or more (almost completely withered))
2 | Cc1cc(-c2nnc3c(C(=O)Nc4nnnn4C)ccc(C(F)(F)F)n23)n(C)n1 [2-062] | 5 (Herbicidal ratio of 90% or more (almost completely withered)) | 5 (Herbicidal ratio of 90% or more (almost completely withered)) | 5 (Herbicidal ratio of 90% or more (almost completely withered)) | 5 (Herbicidal ratio of 90% or more (almost completely withered)) | 5 (Herbicidal ratio of 90% or more (almost completely withered)) | 5 (Herbicidal ratio of 90% or more (almost completely withered)) | 5 (Herbicidal ratio of 90% or more (almost completely withered)) | 5 (Herbicidal ratio of 90% or more (almost completely withered)) | 5 (Herbicidal ratio of 90% or more (almost completely withered)) | 5 (Herbicidal ratio of 90% or more (almost completely withered)) | 5 (Herbicidal ratio of 90% or more (almost completely withered)) | 5 (Herbicidal ratio of 90% or more (almost completely withered)) | 5 (Herbicidal ratio of 90% or more (almost completely withered)) | 5 (Herbicidal ratio of 90% or more (almost completely withered)) | 5 (Herbicidal ratio of 90% or more (almost completely withered)) | 4 (Herbicidal ratio of 70% or more and less than 90%) | 5 (Herbicidal ratio of 90% or more (almost completely withered))
3 | COc1cc(OC)cc(-c2nnc3c(C(=O)Nc4nnnn4C)ccc(C(F)(F)F)n23)c1 [2-063] | 3 (Herbicidal ratio of 40% or more and less than 70%) | 5 (Herbicidal ratio of 90% or more (almost completely withered)) | 5 (Herbicidal ratio of 90% or more (almost completely withered)) | 5 (Herbicidal ratio of 90% or more (almost completely withered)) | 5 (Herbicidal ratio of 90% or more (almost completely withered)) | 5 (Herbicidal ratio of 90% or more (almost completely withered)) | 3 (Herbicidal ratio of 40% or more and less than 70%) | 5 (Herbicidal ratio of 90% or more (almost completely withered)) | 4 (Herbicidal ratio of 70% or more and less than 90%) | 5 (Herbicidal ratio of 90% or more (almost completely withered)) | 5 (Herbicidal ratio of 90% or more (almost completely withered)) | 5 (Herbicidal ratio of 90% or more (almost completely withered)) | 4 (Herbicidal ratio of 70% or more and less than 90%) | 3 (Herbicidal ratio of 40% or more and less than 70%) | 5 (Herbicidal ratio of 90% or more (almost completely withered)) | 3 (Herbicidal ratio of 40% or more and less than 70%) | 5 (Herbicidal ratio of 90% or more (almost completely withered))
4 | Cn1nnnc1NC(=O)c1ccc(C(F)(F)F)n2c(-c3cc(Cl)cc(Cl)c3)nnc12 [2-064] | 0 (Herbicidal ratio of 5% or less (almost no effect)) | 5 (Herbicidal ratio of 90% or more (almost completely withered)) | 4 (Herbicidal ratio of 70% or more and less than 90%) | 1 (Herbicidal ratio of 5% or more and less than 20%) | 5 (Herbicidal ratio of 90% or more (almost completely withered)) | 2 (Herbicidal ratio of 20% or more and less than 40%) | 0 (Herbicidal ratio of 5% or less (almost no effect)) | 5 (Herbicidal ratio of 90% or more (almost completely withered)) | 0 (Herbicidal ratio of 5% or less (almost no effect)) | 5 (Herbicidal ratio of 90% or more (almost completely withered)) | 5 (Herbicidal ratio of 90% or more (almost completely withered)) | 3 (Herbicidal ratio of 40% or more and less than 70%) | 1 (Herbicidal ratio of 5% or more and less than 20%) | 0 (Herbicidal ratio of 5% or less (almost no effect)) | 5 (Herbicidal ratio of 90% or more (almost completely withered)) | 0 (Herbicidal ratio of 5% or less (almost no effect)) | 3 (Herbicidal ratio of 40% or more and less than 70%)
5 | COc1ccc(Cc2nnc3c(C(=O)Nc4nnnn4C)ccc(C(F)(F)F)n23)cc1 [2-065] | 3 (Herbicidal ratio of 40% or more and less than 70%) | 5 (Herbicidal ratio of 90% or more (almost completely withered)) | 5 (Herbicidal ratio of 90% or more (almost completely withered)) | 5 (Herbicidal ratio of 90% or more (almost completely withered)) | 5 (Herbicidal ratio of 90% or more (almost completely withered)) | 5 (Herbicidal ratio of 90% or more (almost completely withered)) | 3 (Herbicidal ratio of 40% or more and less than 70%) | 5 (Herbicidal ratio of 90% or more (almost completely withered)) | 4 (Herbicidal ratio of 70% or more and less than 90%) | 5 (Herbicidal ratio of 90% or more (almost completely withered)) | 5 (Herbicidal ratio of 90% or more (almost completely withered)) | 5 (Herbicidal ratio of 90% or more (almost completely withered)) | 3 (Herbicidal ratio of 40% or more and less than 70%) | 4 (Herbicidal ratio of 70% or more and less than 90%) | 5 (Herbicidal ratio of 90% or more (almost completely withered)) | 3 (Herbicidal ratio of 40% or more and less than 70%) | 5 (Herbicidal ratio of 90% or more (almost completely withered))
